Experimental data from patent US20170056336A1, “CO-TARGETING ANDROGEN RECEPTOR SPLICE VARIANTS AND MTOR SIGNALING PATHWAY FOR THE TREATMENT OF CASTRATION-RESISTANT PROSTATE CANCER” (British Columbia Cancer Agency Branch, priority 2015, published 2017).

What was measured:
AR = biological target: T1, AR (Homo sapiens, UniProt P10275, T878A); assay: PSA-, ARR3-, PB-luciferase AR reporter assay in LNCaP95 cells; settings: LNCaP95 cells treated with androgen, BEZ-235 15 nM
T1 sequence (P10275 1-920 T878A): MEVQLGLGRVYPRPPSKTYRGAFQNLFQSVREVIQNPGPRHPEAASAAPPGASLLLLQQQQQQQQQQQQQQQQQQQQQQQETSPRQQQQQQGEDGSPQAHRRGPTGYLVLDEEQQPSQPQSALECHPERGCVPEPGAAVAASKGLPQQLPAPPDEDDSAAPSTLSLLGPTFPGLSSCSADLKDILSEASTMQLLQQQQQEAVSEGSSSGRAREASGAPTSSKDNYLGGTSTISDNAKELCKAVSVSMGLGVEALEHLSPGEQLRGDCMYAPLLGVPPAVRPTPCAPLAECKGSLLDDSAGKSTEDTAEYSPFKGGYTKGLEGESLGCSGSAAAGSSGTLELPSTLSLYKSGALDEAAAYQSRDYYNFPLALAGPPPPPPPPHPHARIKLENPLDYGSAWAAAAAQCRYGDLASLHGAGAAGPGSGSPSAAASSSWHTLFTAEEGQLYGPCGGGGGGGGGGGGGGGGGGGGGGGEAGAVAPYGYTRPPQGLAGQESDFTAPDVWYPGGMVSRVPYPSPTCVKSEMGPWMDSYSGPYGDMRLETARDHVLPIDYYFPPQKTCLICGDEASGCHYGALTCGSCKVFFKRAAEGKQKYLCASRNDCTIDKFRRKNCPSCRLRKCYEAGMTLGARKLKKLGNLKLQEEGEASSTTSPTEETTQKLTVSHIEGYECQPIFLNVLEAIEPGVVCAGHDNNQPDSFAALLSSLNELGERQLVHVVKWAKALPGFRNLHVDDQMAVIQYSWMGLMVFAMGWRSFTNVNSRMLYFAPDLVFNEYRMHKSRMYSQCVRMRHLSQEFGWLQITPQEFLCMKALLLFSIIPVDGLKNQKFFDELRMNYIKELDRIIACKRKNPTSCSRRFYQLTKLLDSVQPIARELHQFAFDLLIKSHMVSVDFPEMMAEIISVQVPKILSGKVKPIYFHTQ

FL-AR = biological target: T2, FL-AR (Homo sapiens, UniProt P10275, T878A); assay: PSA-, ARR3-, PB-luciferase AR reporter assay in LNCaP cells
T2 sequence (P10275 1-920 T878A): T1 sequence (P10275 1-920 T878A)

Cn1c(=O)n(-c2ccc(C(C)(C)C#N)cc2)c2c3cc(-c4cnc5ccccc5c4)ccc3ncc21 [BEZ-235, 2-methyl-2-[4-(3-methyl-2-oxo-8-quinolin-3-ylimidazo[4,5-c]quinolin-1-yl)phenyl]propanenitrile]
PSA-, ARR3- and PB-luciferase activities (AR): significantly increased
activity of FL-AR in response to androgen (FL-AR): did not enhance
